From patent US20240182445A1 (ONO PHARMACEUTICAL CO., LTD., priority 2019, published 2024) come the findings set out here.

The target in one experiment is T1, human TREK-1 (Homo sapiens, UniProt O95069).
T1 construct: expressed in transfected cells
T1 sequence (O95069 1-426): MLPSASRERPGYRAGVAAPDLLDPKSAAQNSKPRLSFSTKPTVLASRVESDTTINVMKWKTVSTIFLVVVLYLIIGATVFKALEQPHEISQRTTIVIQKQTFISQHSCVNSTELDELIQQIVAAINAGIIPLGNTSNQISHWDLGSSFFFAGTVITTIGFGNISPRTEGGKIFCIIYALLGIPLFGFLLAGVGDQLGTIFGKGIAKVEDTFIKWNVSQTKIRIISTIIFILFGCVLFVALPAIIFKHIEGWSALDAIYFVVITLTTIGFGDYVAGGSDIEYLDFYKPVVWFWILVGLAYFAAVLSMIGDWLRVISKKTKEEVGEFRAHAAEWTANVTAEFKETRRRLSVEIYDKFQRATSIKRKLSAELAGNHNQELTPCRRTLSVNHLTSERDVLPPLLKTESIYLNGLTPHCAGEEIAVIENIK
The experiment in a line: TREK-1 Thallium (Tl+) flux assay, Method 1. As to conditions: TREK-1 Thallium (Tl+) flux assay, Method 1. In kind it is cell-based. The essentials:
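Readout: Thallos fluorescence ratio, taken 25 s post-thallium relative to the pre-thallium baseline average, then converted to % inhibition. Cells were CHO-K1 stably expressing human TREK-1, dye-loaded and exposed to test compound (vehicle 0.3% DMSO) for 10 min prior to thallium stimulation.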
The term IC50 denotes the concentration needed to halve the response being measured. The low end stands for higher potency, the high end for lower potency. Regarding `CC(=O)N[C@H]1CC[C@@H](n2ncc(Cl)c2C(=O)Nc2ccc(OCc3ccccc3)cc2C)CC1` [Compound 399, 1-(cis-4-acetamidocyclohexyl)-N-(4-(benzyloxy)-2-methylphenyl)-4-chloro-1H-pyrazole-5-carboxamide], the concentration for half-maximal inhibition (IC50) worked out at 1760 nM.
On the same count and under the same terms, the figure for `Cc1cc(OCc2ccccc2)ccc1NC(=O)c1c(Cl)cnn1CC1CN(C(=O)C2CC2)CCO1` (stereo not drawn) [Compound 432, N-(4-(benzyloxy)-2-methylphenyl)-4-chloro-1-((4-(cyclopropanecarbonyl)morpholin-2-yl)methyl)-1H-pyrazole-5-carboxamide] is 6450 nM; for `Cc1cc(OCc2ccccc2)ccc1NC(=O)c1c(Cl)cnn1C1CCN(C(=O)C(C)(C)C)CC1` [Compound 405, N-(4-(benzyloxy)-2-methylphenyl)-4-chloro-1-(1-pivaloylpiperidin-4-yl)-1H-pyrazole-5-carboxamide] it is 2310 nM.
Still for that read-out and setting: the figure for `Cc1ccc(-n2cc(-c3cnc(NC(=O)c4c(Cl)cnn4C4CCN(C(=O)OC(C)(C)C)CC4)c(C)c3)cn2)cc1` [Compound 409, tert-butyl 4-(4-chloro-5-((3-methyl-5-(1-(p-tolyl)-1H-pyrazol-4-yl)pyridin-2-yl)carbamoyl)-1H-pyrazol-1-yl)piperidine-1-carboxylate] is 2770 nM.

Still in this experiment, the particulars now being: TREK-1 Thallium (Tl+) flux assay; no *^12 (Method 2) mark on these rows.
As for `Cc1cc(C#Cc2ccccc2)cnc1NC(=O)c1c(Cl)cnn1C[C@H]1CCCN(C(=O)C(C)C)C1` [Compound 263], the IC50 is 430 nM.
Same read-out and setting: the value for `Cc1cc(C#Cc2ccccc2)cnc1NC(=O)c1c(Cl)cnn1C1CCOC1` (stereo not drawn) [Compound 306, 4-chloro-N-(3-methyl-5-(phenylethynyl)pyridin-2-yl)-1-(tetrahydrofuran-3-yl)-1H-pyrazole-5-carboxamide] was 580 nM; that for `CC(C)(C)OC(=O)N1CCOC(Cn2ncc(Cl)c2C(=O)Nc2ncc(C#Cc3ccccc3)cc2F)C1` (stereo not drawn) [Compound 300, tert-butyl 2-((4-chloro-5-((3-fluoro-5-(phenylethynyl)pyridin-2-yl)carbamoyl)-1H-pyrazol-1-yl)methyl)morpholine-4-carboxylate] was 540 nM; that for `Cc1cc(C#Cc2ccccc2)cnc1NC(=O)c1c(Cl)cnn1CC1CCN(C(=O)C(C)C)CC1(F)F` (stereo not drawn) [Compound 231, 4-chloro-1-((3,3-difluoro-1-isobutyrylpiperidin-4-yl)methyl)-N-(3-methyl-5-(phenylethynyl)pyridin-2-yl)-1H-pyrazole-5-carboxamide] was 350 nM.
On the same count and under the same terms, the value for `Cc1cc(C#Cc2ccccc2)cnc1NC(=O)c1c(Cl)cnn1[C@@H]1CCOC1` [Compound 224, (R)-4-chloro-N-(3-methyl-5-(phenylethynyl)pyridin-2-yl)-1-(tetrahydrofuran-3-yl)-1H-pyrazole-5-carboxamide] was 750 nM; that for `COc1c(F)cc(-c2cnc(NC(=O)c3c(Cl)cnn3C3CCN(C(=O)OC(C)(C)C)CC3)c(C)c2)cc1F` [Compound 386, tert-butyl 4-(4-chloro-5-((5-(3,5-difluoro-4-methoxyphenyl)-3-methylpyridin-2-yl)carbamoyl)-1H-pyrazol-1-yl)piperidine-1-carboxylate] was 890 nM.
Same read-out and setting: the value for `Cc1cc(C#Cc2ccccc2)cnc1NC(=O)c1c(Cl)cnn1CC1CCCOC1` (stereo not drawn) [Compound 280, 4-chloro-N-(3-methyl-5-(phenylethynyl)pyridin-2-yl)-1-((tetrahydro-2H-pyran-3-yl)methyl)-1H-pyrazole-5-carboxamide] was 490 nM; that for `Cc1cc(C#Cc2ccccc2)cnc1NC(=O)c1c(Cl)cnn1CC1(F)CCN(C(=O)C(C)C)CC1` [Compound 236, 4-chloro-1-((4-fluoro-1-isobutyrylpiperidin-4-yl)methyl)-N-(3-methyl-5-(phenylethynyl)pyridin-2-yl)-1H-pyrazole-5-carboxamide] was 360 nM.

Still in this experiment, the particulars now being: TREK-1 Thallium (Tl+) flux assay; values without footnote *12 are Method 1.
Compound `CCNC(=O)N1CCC(n2ncc(Cl)c2C(=O)Nc2ncc(C#Cc3cccs3)cc2C)CC1` [Compound 73, 4-(4-chloro-5-((3-methyl-5-(thiophen-2-ylethynyl)pyridin-2-yl)carbamoyl)-1H-pyrazol-1-yl)-N-ethylpiperidine-1-carboxamide] gave an IC50 of 160 nM.
The same measure, in the same setting: the value for `CC(C1CCN(C(=O)OC(C)(C)C)CC1)n1ncc(Cl)c1C(=O)Nc1ncc(C#Cc2ccccc2)cc1F` (stereo not drawn) [Compound 78, tert-butyl 4-(1-(4-chloro-5-((3-fluoro-5-(phenylethynyl)pyridin-2-yl)carbamoyl)-1H-pyrazol-1-yl)ethyl)piperidine-1-carboxylate] was 160 nM; that for `Cc1cc(C#Cc2cccc(F)c2)cnc1NC(=O)c1c(Cl)cnn1CC1CCN(C(=O)C2CC2)CC1` [Compound 174, 4-chloro-1-((1-(cyclopropanecarbonyl)piperidin-4-yl)methyl)-N-(5-((3-fluorophenyl)ethynyl)-3-methylpyridin-2-yl)-1H-pyrazole-5-carboxamide] was 270 nM; that for `CC(C)C(=O)N[C@H]1C[C@@H](n2ncc(Cl)c2C(=O)Nc2ncc(C#Cc3ccccc3)cc2F)C1` [Compound 124, 4-chloro-N-(3-fluoro-5-(phenylethynyl)pyridin-2-yl)-1-(cis-3-isobutyramidocyclobutyl)-1H-pyrazole-5-carboxamide] was 210 nM.
On the same count and under the same terms, the value for `CC(C)C(=O)N1CC[C@@H](Cn2ncc(Cl)c2C(=O)Nc2ncc(C#Cc3ccccc3)cc2F)[C@@H](F)C1` [Compound 146, 4-chloro-1-(((3R,4S)-3-fluoro-1-isobutyrylpiperidin-4-yl)methyl)-N-(3-fluoro-5-(phenylethynyl)pyridin-2-yl)-1H-pyrazole-5-carboxamide] was 230 nM.
Compound `CCC(=O)N1CCC(n2ncc(Cl)c2C(=O)Nc2ncc(C#Cc3cccs3)cc2F)CC1` [Compound 67, 4-chloro-N-(3-fluoro-5-(thiophen-2-ylethynyl)pyridin-2-yl)-1-(1-propionylpiperidin-4-yl)-1H-pyrazole-5-carboxamide] gave a 50% inhibitory concentration (IC50) of 150 nM.
The compound `CC(=O)N1CCC(Cn2ncc(Cl)c2C(=O)Nc2ncc(C#Cc3ccccc3)cc2F)CC1` [Compound 42, 1-((1-acetylpiperidin-4-yl)methyl)-4-chloro-N-(3-fluoro-5-(phenylethynyl)pyridin-2-yl)-1H-pyrazole-5-carboxamide] had a 50% inhibitory concentration (IC50) of 130 nM.
Same read-out and setting: the figure for `CC(C)C(=O)N[C@H]1CC[C@H](n2ncc(Cl)c2C(=O)Nc2ncc(C#Cc3ccccc3)cc2F)CC1` [Compound 117] is 200 nM; for `CC(C)(C)OC(=O)N1C[C@H]2C[C@H](n3ncc(Cl)c3C(=O)Nc3ncc(C#Cc4ccccc4)cc3F)C[C@H]2C1` [Compound 170, tert-butyl (3aR,5s,6aS)-5-(4-chloro-5-{[3-fluoro-5-(phenylethynyl)pyridin-2-yl]carbamoyl}-1H-pyrazol-1-yl)hexahydrocyclopenta[c]pyrrole-2(1H)-carboxylate] it is 270 nM.
Same read-out and setting: the figure for `Cc1cc(C#Cc2ccc(F)cc2)cnc1NC(=O)c1c(Cl)cnn1[C@H]1CC[C@@H](NC(=O)C(C)C)CC1` [Compound 125, 4-chloro-N-(5-((4-fluorophenyl)ethynyl)-3-methylpyridin-2-yl)-1-(cis-4-isobutyramidocyclohexyl)-1H-pyrazole-5-carboxamide] is 210 nM; for `CC(=O)N1CCC(C(C)n2ncc(Cl)c2C(=O)Nc2ncc(C#Cc3ccccc3)cc2C)CC1` (stereo not drawn) [Compound 32, 1-(1-(1-acetylpiperidin-4-yl)ethyl)-4-chloro-N-(3-methyl-5-(phenylethynyl)pyridin-2-yl)-1H-pyrazole-5-carboxamide] it is 100 nM.
The same measure, in the same setting: the value for `CC(=O)N1CC[C@H](n2ncc(Cl)c2C(=O)Nc2ncc(C#Cc3ccccc3)cc2C)C[C@@H]1C` (single isomer, unassigned) [Compound 114, 1-[(2S,4S)-1-acetyl-2-methylpiperidin-4-yl]-4-chloro-N-[3-methyl-5-(phenylethynyl)pyridin-2-yl]-1H-pyrazole-5-carboxamide or 1-[(2R,4R)-1-acetyl-2-methylpiperidin-4-yl]-4-chloro-N-[3-methyl-5-(phenylethynyl)pyridin-2-yl]-1H-pyrazole-5-carboxamide] was 200 nM; that for `CC(=O)NC1CCCC(n2ncc(Cl)c2C(=O)Nc2ncc(C#Cc3ccccc3)cc2C)C1` (stereo not drawn) [Compound 107, 1-(3-acetamidocyclohexyl)-4-chloro-N-(3-methyl-5-(phenylethynyl)pyridin-2-yl)-1H-pyrazole-5-carboxamide hydrofluoride] was 190 nM; that for `Cc1cc(C#Cc2ccc(F)cc2)cnc1NC(=O)c1c(Cl)cnn1C1CC2(C1)CN(C(=O)C1CC1)C2` [Compound 115, 4-chloro-1-(2-(cyclopropanecarbonyl)-2-azaspiro[3.3]heptan-6-yl)-N-(5-((4-fluorophenyl)ethynyl)-3-methylpyridin-2-yl)-1H-pyrazole-5-carboxamide] was 200 nM.
In the case of `CC(=O)N1CC[C@H](n2ncc(Cl)c2C(=O)Nc2ncc(C#Cc3ccccc3)cc2F)C1` [Compound 129, (S)-1-(1-acetylpyrrolidin-3-yl)-4-chloro-N-(3-fluoro-5-(phenylethynyl)pyridin-2-yl)-1H-pyrazole-5-carboxamide], the IC50 worked out at 220 nM.
